Laboratory results reported in US20200323849A1, “COMBINATIONS OF HISTONE DEACETYLASE INHIBITORS AND IMMUNOMODULATORY DRUGS” (Acetylon Pharmaceuticals, Inc., priority 2013, published 2020).

Assays:
[1] = system: H929 myeloma cells; test: Apoptosis by flow cytometry, Annexin V / propidium iodide (H929); assay type: cell-based; details: H929, 5 and 7 days; Compound A 2 μM, Lenalidomide 2 μM, Pomalidomide 1 μM
Method: (§1) H929 (FIGS. 11A & 11B) or MM.1s (FIGS. 11C & 11D) myeloma cells were exposed to drug for 5 (FIGS. 11A & 11C) and 7 (FIGS. 11B & 11D) days, and apoptosis was assessed by flow cytometry by measuring Annexin V binding and cellular permeability to propidium iodide. The relative fraction of cells that were live, in early apoptosis, in late apoptosis, or dead was then determined.

[2] = human, in vivo
Method: (§4) In Part A of the trial, patients were treated with escalating doses of oral Compound A in combination with a standard dose and schedule of lenalidomide and dexamethasone on days 1-5 and 8-12 of a 28 day cycle. For example, the patients in cohort 1 received 40 mg of Compound A, 15 mg of Compound E, and 40 mg of dexamethasone per day; the patients in cohort 2 received 40 mg of Compound A, 25 mg of Compound E, and 40 mg of dexamethasone per day; the patients in cohort 3 received 80 mg of Compound A, 25 mg of Compound E, and 40 mg of dexamethasone per day; the patients in cohort 4 received 160 mg of Compound A, 25 mg of Compound E, and 40 mg of dexamethasone per day; and the patients in cohort 5 received 240 mg of Compound A, 25 mg of Compound E, and 40 mg of dexamethasone per day. […] For example, the patients in cohort 6 received 160 mg of Compound A, 25 mg of Compound E, and 40 mg of dexamethasone per day; the patients in cohort 7 received 160 mg of Compound A, 25 mg of Compound E, and 40 mg of dexamethasone twice daily; and the patients in cohort 8 received 240 mg of Compound A, 25 mg of Compound E, and 40 mg of dexamethasone twice daily. Peripheral blood samples were obtained for PK and PD analysis at specified time points.

[3] = system: H929 cells; test: Immunoblot in H929 cells; assay type: cell-based
[4] = system: MM.1s myeloma cells; test: Cell cycle distribution by flow cytometry, propidium iodide (MM.1s); assay type: cell-based; details: 3 and 5 days, Compound A 2 μM, Lenalidomide 2 μM, Pomalidomide 1 μM
Method: (§2) H929 (FIGS. 10A & 10B) or MM.1s (FIGS. 10C & 10D) myeloma cells were exposed to drug for 3 (FIGS. 10A & 10C) and 5 (FIGS. 10B & 10D) days and cell cycle distribution was assessed by flow cytometry via incorporation of propidium iodide. The relative fraction of cells in each stage of the cell cycle (GO/G1, S, and G2/M) as well as the fraction of dead cells (Sub G1) was then estimated.

[5] = Phase 1b clinical trial: PK in peripheral blood samples
Method: as §4

[6] = system: MM.1s myeloma cells; test: Apoptosis by flow cytometry, Annexin V / propidium iodide (MM.1s); assay type: cell-based; details: 5 and 7 days, Compound A 2 μM, Lenalidomide 2 μM, Pomalidomide 1 μM
Method: as §1

[7] = system: acetylated histones (a marker of class 1 HDAC inhibition); test: Phase 1b PD: acetylated histones in PBMC; assay type: in vivo, human; details: at ≥80 mg Compound A
Method: as §4

[8] = Compound A monotherapy clinical trial (phase 1a)
Method: as §4

[9] = system: H929 myeloma cells; test: Cell cycle distribution by flow cytometry, propidium iodide (H929); assay type: cell-based; details: H929, 3 and 5 days; Compound A 2 μM, Lenalidomide 2 μM, Pomalidomide 1 μM
Method: as §2

[10] = system: acetylated tubulin (a marker of HDAC6 inhibition); test: Phase 1b PD: acetylated tubulin in PBMC; assay type: in vivo, human; details: at ≥80 mg Compound A
Method: as §4

[11] = system: HDAC1, 2, and 3; test: HDAC enzyme assays (HDAC1, 2, 3); assay type: biochemical
Method: (§3) Compounds for testing were diluted in DMSO to 50 fold the final concentration and a ten point three fold dilution series was made. The compounds were diluted in assay buffer (50 mM HEPES, pH 7.4, 100 mM KCl, 0.001% Tween-20, 0.05% BSA, 20 μM TCEP) to 6 fold their final concentration. The HDAC enzymes (purchased from BPS Biosciences) were diluted to 1.5 fold their final concentration in assay buffer. The tripeptide substrate and trypsin at 0.05 μM final concentration were diluted in assay buffer at 6 fold their final concentration. The final enzyme concentrations used in these assays were 3.3 ng/ml (HDAC1), 0.2 ng/ml (HDAC2), 0.08 ng/ml (HDAC3) and 2 ng/ml (HDAC6). The final substrate concentrations used were 16 μM (HDAC1), 10 μM (HDAC2), 17 μM (HDAC3) and 14 μM (HDAC6). Five μl of compound and 20 μl of enzyme were added to wells of a black, opaque 384 well plate in duplicate. Enzyme and compound were incubated together at room temperature for 10 minutes. Five μl of substrate was added to each well, the plate was shaken for 60 seconds and placed into a Victor 2 microtiter plate reader. The development of fluorescence was monitored for 60 min and the linear rate of the reaction was calculated. The IC50 was determined using Graph Pad Prism by a four parameter curve fit.

[12] = target: T1, HDAC6 (Homo sapiens, UniProt Q9UBN7); test: HDAC enzyme assays (HDAC6 selectivity); assay type: biochemical
T1 construct: purchased BPS Biosciences
T1 sequence (Q9UBN7 1-1215): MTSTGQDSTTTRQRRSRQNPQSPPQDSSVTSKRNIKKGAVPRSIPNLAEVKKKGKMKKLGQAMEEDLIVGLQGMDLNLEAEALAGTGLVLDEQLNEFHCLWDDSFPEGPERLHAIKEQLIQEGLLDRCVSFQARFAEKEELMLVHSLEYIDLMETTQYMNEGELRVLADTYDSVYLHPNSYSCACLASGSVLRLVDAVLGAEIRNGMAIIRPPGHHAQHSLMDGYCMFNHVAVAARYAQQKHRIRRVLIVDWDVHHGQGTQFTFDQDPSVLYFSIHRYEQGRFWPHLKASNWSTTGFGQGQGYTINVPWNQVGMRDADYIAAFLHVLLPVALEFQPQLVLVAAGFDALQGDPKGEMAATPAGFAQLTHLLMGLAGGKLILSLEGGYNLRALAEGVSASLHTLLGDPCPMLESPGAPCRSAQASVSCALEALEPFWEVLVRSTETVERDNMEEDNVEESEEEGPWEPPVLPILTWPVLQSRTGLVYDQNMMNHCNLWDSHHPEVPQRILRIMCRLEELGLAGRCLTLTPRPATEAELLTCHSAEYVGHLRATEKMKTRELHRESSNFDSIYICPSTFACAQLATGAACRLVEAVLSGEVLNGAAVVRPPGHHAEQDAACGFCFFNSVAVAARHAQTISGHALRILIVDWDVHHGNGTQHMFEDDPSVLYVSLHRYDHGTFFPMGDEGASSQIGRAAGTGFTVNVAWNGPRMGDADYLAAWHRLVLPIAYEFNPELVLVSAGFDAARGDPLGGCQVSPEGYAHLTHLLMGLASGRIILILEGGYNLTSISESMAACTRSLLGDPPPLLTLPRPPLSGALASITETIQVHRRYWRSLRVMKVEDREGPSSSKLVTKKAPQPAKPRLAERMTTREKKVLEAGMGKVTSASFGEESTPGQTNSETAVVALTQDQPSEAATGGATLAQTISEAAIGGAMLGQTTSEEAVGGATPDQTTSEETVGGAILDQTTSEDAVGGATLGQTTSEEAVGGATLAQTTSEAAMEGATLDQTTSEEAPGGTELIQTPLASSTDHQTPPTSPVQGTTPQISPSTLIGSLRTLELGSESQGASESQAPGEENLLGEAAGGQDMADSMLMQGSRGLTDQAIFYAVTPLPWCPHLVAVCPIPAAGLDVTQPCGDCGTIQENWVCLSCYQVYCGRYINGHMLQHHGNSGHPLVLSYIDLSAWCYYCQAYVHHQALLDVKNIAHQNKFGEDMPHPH
Method: as §3, with “Five μl of compound and 20 μl of enzyme were added to wells of a black, opaque 384 well plate in duplicate.” left out

## O=C(CCCCCCNC(=O)c1cnc(N(c2ccccc2)c2ccccc2)nc1)NO [Compound A, 2-(diphenylamino)-N-(7-(hydroxyamino)-7-oxoheptyl) pyrimidine-5-carboxamide]
[1]
  percentage of apoptotic cells: small increase in apoptosis
[2]
  dose limiting toxicities (DLTs): not observed
[3]
  acetylation of α-tubulin (inhibition of HDAC6): hyperacetylation
[4]
  cell cycle distribution (G0/G1, S, G2/M): small reduction
[5]; at ≥80 mg, coadministered with lenalidomide and dexamethasone
  Maximal levels of Compound A: ≥ 1 µM
[5]; coadministration of lenalidomide
  PK for Compound A versus analogous dose levels in phase 1a monotherapy: similar
[6]
  percentage of apoptotic cells: small increase in apoptosis
[7]
  increase in acetylated histones: minimal increase
[8]
  dose well-tolerated as a monotherapy (maximum dose examined): up to 360 mg/day
[9]
  cell cycle distribution (G0/G1, S, G2/M): small reduction
[10]
  increase in acetylated tubulin: > 2 ×

## O=C(CCCCCCNC(=O)c1cnc(N(c2ccccc2)c2ccccc2Cl)nc1)NO [Compound B, 2-((2-chlorophenyl)(phenyl)amino)-N-(7-(hydroxyamino)-7-oxoheptyl)pyrimidine-5-carboxamide]
[11]
  inhibition of HDAC1, 2, and 3: low level inhibition

## O=C(NO)c1cnc(NC2(c3cccc(F)c3)CCCCC2)nc1 [Compound C, 2-((1-(3-fluorophenyl)cyclohexyl)amino)-N-hydroxypyrimidine-5-carboxamide]
[12]
  selective for HDAC6 over class I HDAC's: more than 300 fold
